The target of test [1] is T1, MBR (Rattus norvegicus, UniProt P16257). The experiment in a line: Receptor binding: [3H]PK11195 binding to rat brain membrane preparation. The note with it: competition with [3H]PK11195 1 nmol/L, Cheng & Prusoff. Details: The brains without cerebellum were homogenized in ice-cold 50 mmol/L Tris-HCl buffer (pH7.4); from tissue; host or cells: male Wistar rat brain without cerebellum, crude membrane pellet. The method, then:
Experiment 1: Receptor Binding
The affinity of the compound to MBR was determined using rat brain membrane preparation. Male Wistar rats were decapitated. After extirpation of the brain, cerebellum was removed. The brains without cerebellum were homogenized in ice-cold 50 mmol/L Tris-HCl buffer (pH7.4). The homogenate was centrifuged at 12,000 g for 20 min (4° C.), then supernatant was discarded. The residual pellet was washed in the same buffer. The pellet resuspended in 50 mmol/L Tris-HCl buffer (pH7.4) and adjusted to about 1 mg/mL was used as the rat brain membrane preparation for binding assay.
To determine the amount of non-specific binding, 20 μmol/L of PK11195 was added in place of DMSO and incubate for 1 h. The reaction was terminated by rapid filtration on GF/B filter soaked with 0.3% polyethyleneimine using cell harvester, then the filter was washed twice with 50 mmol/L Tris-HCl buffer (pH7.4). After dried in the oven, the radioactivity on the filer was measured by liquid scintillation counter. The data were analyzed using analysis soft KELL (Ver.6, BIOSOFT).
To determine the amount of non-specific binding, 20 μmol/L of PK11195 was added in place of DMSO. And to determine the affinity of the invention, 10 pmol/L to 1 μmol/L of the compound dissolved in DMSO was added in place of DMSO. The reaction was terminated as above described, then radioactivity on the filer was measured by liquid scintillation counter. […] The inhibitory constant (Ki value) was derived according to the equation of Cheng & Prusoff (Biochem. Pharmacol., 22, 3099-3108, 1973).

Test [2] has as its system stress-loaded male Wistar rats. The experiment in a line: Anti-stress effect: number of fecal pellets in psychological (water aversive) stress model. In kind it is in vivo, rat. The note with it: for number of fecal pellets: p.o., male Wistar rats, psychological (water aversive) stress, counted 1 h after start of stress loading, mean ± spread; for number of fecal pellets / effect on stress-induced increase in the number of fecal pellets: n=10/group; for effect on number of fecal pellets vs vehicle (significance, all doses): all tested p.o. doses vs vehicle, stress-loaded male Wistar rats; for effect on stress-induced increase in the number of fecal pellets: oral administration 30 min before stress loading, counted after 1 h. The method, then: Psychological stress was loaded to male Wistar rats (Brain Res., 641, 21-28 (1994)). Platform was located in the center of the container and water was collected to 10 cm in height. Thirty min after oral administration of vehicle or the compound, stress loading was started. One hour after, number of fecal pellets were counted (n=10/group). The rats without administration and stress-loading rarely defecated in 1 h.

The target in test [3] is T1, MBR. In words: MBR antagonist activity: FGIN1-27-stimulated pregnenolone production in rat adrenocortical mitochondria. In kind it is biochemical. The note with it: FGIN1-27 1 nmol/L; MBR antagonist 0.1 pmol/L to 1 μmol/L; FIGS. 1 and 2. The source says:
Horizontal axis represents the concentrations of the compound.

The subject of test [4] is rat adrenocortical mitochondria. The experiment in a line: Determination of pregnenolone in rat adrenocortical mitochondria. In kind it is biochemical. The note with it: for pregnenolone content relative to DMSO treated group: final concentration of the compound 1 μmol/L; for Amount of pregnenolone production (%): 10 μmol/L, DMSO assumed 100, n=5; for MBR agonist or antagonist as judged by effect on pregnenolone production: compared with DMSO treated group.

The results in this text go back to patent publication US20050009812A1, “Remedies for stress diseases comprising mitochondrial benzodiazepine receptor antagonists” (priority 2001, published 2005).

With `O=C(NCc1ccc(F)cc1C(F)(F)F)c1cccc(Cl)c1Cl` [1(16), N-(4-fluoro-2-trifluoromethylbenzyl)-2,3-dichlorobenzamide], affinity at MBR [1] was put at a Ki of 0.19 nM.

As for `O=C(NCc1cc(F)ccc1OCc1ccccc1)c1cccc(Cl)c1Cl` [1(110), N-(2-benzyloxy-5-fluorobenzyl)-2,3-dichlorobenzamide], on MBR [1], the Ki was 0.22 nM.

On to `Fc1cccc(Cl)c1Cn1nnnc1-c1ccccc1C(F)(F)F` [2(14), 1-(2-chloro-6-fluorobenzyl)-5-(2-trifluoromethylphenyl)-1H-1,2,3,4-tetrazole], for which the “number of fecal pellets” value in test [2] (0.3 mg/kg) was found to be 6.1 ± 0.82; in test [2] (3 mg/kg), 6.6 ± 0.76; in test [2] (30 mg/kg) it was 5.1 ± 0.78. The compound further came in with a Ki on MBR [1] of 3.3 nM. Also, on MBR [3], the “antagonistic effect on FGIN1-27-stimulated pregnenolone production” value is reported as “antagonize the steroid production stimulated by MBR agonist”. Besides, in test [4], the “pregnenolone content relative to DMSO treated group” value was found to be 0.98 times.

With `Clc1ccc(Cl)c(Cc2nnnn2-c2cccc(Cl)c2Cl)c1` [2(71), 5-(2,5-dichlorobenzyl)-1-(2,3-dichlorophenyl)-1H-1,2,3,4-tetrazole], the Ki on MBR [1] worked out at 0.08 nM.

At MBR [1], `Clc1cccc(Cc2nnnn2-c2cccc(Cl)c2Cl)c1Cl` [2(74), 5-(2,3-dichlorobenzyl)-1-(2,3-dichlorophenyl)-1H-1,2,3,4-tetrazole] showed a Ki of 0.16 nM.

At MBR [1], `Clc1cccc(-c2nnnn2Cc2cc(Cl)ccc2OCc2ccccc2)c1` [2(105), 1-(2-benzyloxy-5-chlorobenzyl)-5-(3-chlorophenyl)-1H-1,2,3,4-tetrazole] showed a Ki of 0.73 nM.

Take `CCN(Cc1ccccc1)C(=O)Cn1c(=O)n(C)c2cnc(-c3ccccc3)nc21` [AC-5216, N-benzyl-N-ethyl-2-(7-methyl-8-oxo-2-phenyl-7,8-dihydro-9H-purin-9-yl)acetamide]: the results for the “number of fecal pellets” value in test [2] (0.3 mg/kg), in test [2] (3 mg/kg) and in test [2] (30 mg/kg) were 9.6 ± 0.74, 7.5 ± 0.63 and 9.3 ± 0.94, respectively. Besides, the “effect on number of fecal pellets vs vehicle (significance, all doses)” value (shortened to “effect … vs vehicle (significance, all doses)”) in test [2] is listed as “No significant effect in any dose”. Moreover, the “effect on stress-induced increase in the number of fecal pellets” value (“effect on stress-induced increase” for short) is “did not show an effect” in test [2] and “did not produce significant effects” in test [2] (listed as AC-5261). Also, the “Amount of pregnenolone production (%)” value in test [4] amounted to 122.65 ± 7.56%. Further, the “MBR agonist or antagonist as judged by effect on pregnenolone production” value (“MBR agonist or antagonist as judged” below) is “MBR agonists which increase pregnenolone production” in test [4] and “MBR antagonist” in test [4] (listed as N-benzyl-N-ethyl-2-(7-methyl-8-oxo-2-phenyl-7,8-dihydro-9H-purin-9-yl)acetamide).

Turning to `CCCN(CCC)C(=O)c1c(-c2ccc(Cl)cc2)nc2cc(Cl)cc(Cl)n12` [CB34, 5,7-dichloro-2-(4-chlorophenyl)-3-dipropylaminocarbonylimidazo[1,2-a]pyridine], the “number of fecal pellets” value in test [2] (3 mg/kg) is on record as 10.2 ± 0.96. Besides, the “number of fecal pellets” value in test [2] (10 mg/kg) was 7.6 ± 0.93. The “number of fecal pellets” value in test [2] (30 mg/kg) is given as 8.6 ± 1.00. In addition, in test [2], the “effect … vs vehicle (significance, all doses)” value is “No significant effect in any dose” and the “effect on stress-induced increase” value is listed as “did not produce significant effects”. Moreover, in test [4], the “Amount of pregnenolone production (%)” value was 131.36 ± 5.38% and the “MBR agonist or antagonist as judged” value was “MBR agonists which increase pregnenolone production”.

Regarding `CCCCCCN(CCCCCC)C(=O)Cc1c(-c2ccc(F)cc2)[nH]c2ccccc12` [FGIN1-27, 2-[2-(4-fluorophenyl)-1H-indole-3-yl]-N,N-dihexylacetamide], in test [4], the “MBR agonist or antagonist as judged” value is “MBR agonists which increase pregnenolone production” and the “pregnenolone content relative to DMSO treated group” value is given as 1.37 times.

Consider `CCC(C)N(C)C(=O)c1cc2ccccc2c(-c2ccccc2Cl)n1` (stereo not shown) [PK11195, 1-(2-chlorophenyl)-N-methyl-N-(1-methylpropyl)-3-isoquinolinecarboxamide], for which the “number of fecal pellets” value worked out at 6.4 ± 0.76 in test [2] (0.3 mg/kg), 6.6 ± 0.97 in test [2] (3 mg/kg) and 5.5 ± 0.81 in test [2] (30 mg/kg). Further, the “effect on stress-induced increase” value in test [2] is listed as “produced significant effects”. Besides, at MBR [3], the “antagonistic effect on FGIN1-27-stimulated pregnenolone production” value is “antagonize the steroid production stimulated by MBR agonist”. For the same compound, the “Amount of pregnenolone production (%)” value in test [4] amounted to 101.82 ± 1.64%. Also, the “MBR agonist or antagonist as judged” value in test [4] is “MBR antagonists which hardly effect on it”.

Turning to `CN1C(=O)CN=C(c2ccc(Cl)cc2)c2cc(Cl)ccc21` [Ro5-4864, 7-chloro-5-(4-chlorophenyl)-1-methyl-2-oxo-2,3-dihydro-1H-benzodiazepine], in test [2] (3 mg/kg), the “number of fecal pellets” value turned out to be 8.9 ± 1.16. The “number of fecal pellets” value in test [2] (10 mg/kg) was 9.2 ± 0.98. In addition, the “number of fecal pellets” value in test [2] (30 mg/kg) is listed as 8.6 ± 0.91. Further, in test [2], the “effect … vs vehicle (significance, all doses)” value was “No significant effect in any dose” and the “effect on stress-induced increase” value is given as “did not produce significant effects”. Further, in test [4], the “Amount of pregnenolone production (%)” value turned out to be 123.59 ± 5.41% and the “MBR agonist or antagonist as judged” value was “MBR agonists which increase pregnenolone production”.
